Assay results from patent US9351986B2, “Calicheamicin derivative-carrier conjugates” (priority 2002, dated 2016).
“And” between values parts separate entries of the source, which are not always exact repeats. Equal entries are not always repeated.

Columns and labels:
[1] = tested on: Ramos cells; assay: Disseminated RAMOS B lymphoma in SCID mice, established model; type: in vivo
Protocol: (§1) Male SCID mice (CB17 SCID), 20-25 g, were injected with […] through the tail vein (0.2 ml). […] For the day 3 treatment schedule, mice were dosed on days 3, 7, and 11. For the day 9 treatment schedule, mice were dosed on days 9, 13 and 17. […] Mice were monitored daily for the presence of hind limb paralysis at which time they were killed. Seven to 10 mice per treatment group were used. The group average survival time (±SD), median, minimum, and maximum survival times were all calculated. The difference in survival distribution between groups was determined by using a nonparametric Log-rank test with significance reported at the 0.05 level. The survival curves were constructed using the Kaplan-Meier method.
The initial study examined the effect of two different dosing schedules on survival times of the SCID mice with the disseminated lymphoma. The first study looked at initiating drug dosing 3 days after the tumor cells were injected intravenously (developing model), while the second study delayed drug dosing until 9 days post tumor cell injection (established model). […]

[2] = tested on: RL NHL xenografts; assay: RL NHL xenografts staged to 300-400 mg in nude mice; type: in vivo; conditions: for MEAN RELATIVE TUMOR GROWTH: tumor mass at Week 3/day 1
Protocol: Similar studies were carried out using the RL lymphoma model. […] CMC-544 in a dose-dependent manner caused tumors to regress over a 3-week time frame. The minimally effective dose of CMC-544 in the RL lymphoma model was established from statistical analyses of these studies to be 20 μg/kg based on calicheamicin content. There were no deaths in any of these three studies.
The observed anti-tumor efficacy was dose-dependent as expected and there was no difference in the efficacies of either of the two CMC-544 preparations. […] However, it should be emphasized that for each dose of conjugated calicheamicin, the quantity of antibody protein administered in the form of a conjugate was four times higher for CMC-544 made by the CMA-676 process versus that made by the CMC-544 process. Since the calicheamicin content of the targeted conjugate is primarily responsible for causing the anti-tumor effect, it is possible to deliver the required quantity of calicheamicin via the conjugate made by the new procedure using much smaller quantities of the targeting antibody. The increased loading of the conjugate made by the CMC-544 process is, in effect, due to the lack of significant amounts of the low conjugated fraction (LCF).

[3] = tested on: CD22− CD33+ HL-60 leukemia cells; assay: Flow cytometry binding to HL-60 leukemia cells; conditions: data not shown
Description: (§2) Purified human polyclonal IgG1 and IgG4 were also used as negative controls.

[4] = tested on: CD22 on B cells; assay: Species specificity of CD22 recognition on B cells; type: binding, human, murine, rat, canine, porcine, cynomolgus and rhesus; conditions: data not shown
Description: as §2

[5] = tested on: RL B lymphoma xenograft; assay: Subcutaneous RL B lymphoma xenograft, CMC-544 versus rituximab and CHOP; type: in vivo, Balb/c nude mice; conditions: IP, Q4Dx3, 160 μg/kg calicheamicin equivalents
Protocol: Female, athymic nude mice, 18-22 g, were given total body irradiation (400 rads). […] Three days after irradiation, mice were injected subcutaneously with 107 RL cells in […] ™ (Collaborative Biomedical Products, Belford, Mass., diluted 1:1 in RPMI medium) in the dorsal, right flank. […] The initial day of drug administration was considered day 1. Two additional doses were given on days 5 and 9 (treatment=q4Dx3). […] Tumors were measured at least once a week and calculated as tumor mass (g)=0.5 (tumor width/2) (tumor length). Group means SEM were calculated and compared to the vehicle-treated group for statistical significance using multiple T-tests. Group means were recorded up to 50 days or until either a mouse died (which disrupted the group mean) or the tumor grew too large (>3.5 g) and the mouse had to be euthanized. […] The number of tumor free mice at the end of each study for each treatment group was also recorded. […]
Individual components of the CHOP regimen were used at their respective maximum tolerated doses assessed in nude mice (data not reported) and were as follows: Cyclophosphamide (C) 40 mg/kg IP, doxorubicin (H) 3.3 mg/kg IP, vincristine (O) 0.5 mg/kg IP, and prednisone (P) 0.2 mg/kg PO. […]

[6] = tested on: RAMOS B-cell lymphoma; assay: RAMOS B-cell lymphoma xenograft growth; type: in vivo; conditions: FIG. 18
Description: In Vivo Cytotoxicity. CMC-544 made by the CMC-544 process was further evaluated in B-cell lymphoma xenografts. In these studies, two B-cell lymphoma tumors, RAMOS and RL, were used. RL lymphoma is a non-Burkitt's NHL-derived cell line whereas RAMOS was originally derived from a Burkitt's lymphoma.

[7] = tested on: Ramos cells; assay: Ramos cell viability, CMC-544 with and without rituximab, 96 hours; type: cell-based; conditions: CMC-544 alone, calicheamicin DMH
Protocol: After 96 hours, cell viability was measured by propidium iodide exclusion analyzed by flow cytometry. […] The statistical analysis was conducted using the PROBIT procedure in SAS version 8.2.

[8] = tested on: Ramos cells; assay: Disseminated RAMOS B lymphoma in SCID mice, developing model; type: in vivo; conditions: Table 8; conjugates 160 μg/kg, rituximab 20 mg/kg ip Q4Dx3 from day 3
Protocol: as §1
The initial study examined the effect of two different dosing schedules on survival times of the SCID mice with the disseminated lymphoma. The first study looked at initiating drug dosing 3 days after the tumor cells were injected intravenously (developing model), while the second study delayed drug dosing until 9 days post tumor cell injection (established model).

[9] = tested on: RL lymphoma; assay: Large established RL lymphoma xenografts; type: in vivo, mice
Protocol: (§3) The ability of CMC-544 made by the new procedure to inhibit growth of large established B-cell lymphoma xenografts using both the RAMOS and RL lymphoma models was also investigated. The tumors were allowed to grow and staged to 1.5 or 2 g of tumor mass after which CMC-544 or an isotype-matched negative control conjugate (CMA-676) were administered intraperitoneally at the dose of 160 μg/kg of conjugated calicheamicin keeping the original schedule of dosing on days 1, 5 and 9.
A similar experiment using CMC-544 was carried out in the RL lymphoma model. Intraperitoneal administration of CMC-544 at a dose of 160 μg/kg on a similar schedule as described before caused >90% regression of the pre-existing mass of RL lymphoma within 30 days. […] In a small number of studies not shown here, RL lymphomas that re-grew sporadically after the initial CMC-544-induced regression were retreated with CMC-544 again. […] Thus, the treatment with CMC-544 can be effective against both small and large masses of B-cell lymphomas with the potential for repeat therapy.

[10] = tested on: large RAMOS lymphoma; assay: Large established RAMOS lymphoma xenografts; type: in vivo, nude mice; conditions: days 1, 5 and 9
Protocol: as §3
The same schedule of dosing was shown earlier to cause long lasting regression of small staged tumors (see Table 6).

[11] = tested on: Fc-CD22; assay: BIACORE blocking of murine anti-CD22 mAbs by G5/44 on immobilized Fc-CD22; type: binding; conditions: Fc-CD22 saturated with G5/44 (100 μg/ml), before murine mAb
Sequence of Fc-CD22 (P20273 20-416 limits assumed): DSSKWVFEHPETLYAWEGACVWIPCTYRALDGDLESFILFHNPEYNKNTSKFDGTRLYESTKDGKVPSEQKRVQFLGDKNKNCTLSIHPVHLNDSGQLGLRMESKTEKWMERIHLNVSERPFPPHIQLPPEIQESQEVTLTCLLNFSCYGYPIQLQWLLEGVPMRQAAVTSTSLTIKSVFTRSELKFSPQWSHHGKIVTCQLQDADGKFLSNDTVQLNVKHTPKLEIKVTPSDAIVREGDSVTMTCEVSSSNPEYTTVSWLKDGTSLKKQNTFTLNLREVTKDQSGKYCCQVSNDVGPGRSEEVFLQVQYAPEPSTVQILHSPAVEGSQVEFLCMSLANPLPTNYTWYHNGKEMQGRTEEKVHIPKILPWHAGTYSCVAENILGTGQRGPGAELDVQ
Protocol: Whether or not G5/44 can inhibit the binding of murine mAbs of known specificity to CD22 was evaluated by BIACORE™ analysis using Fc-CD22 immobilized to a BIACORE™ CM5 chip. The surface plasmon resonance units (RU) obtained with and without prior saturation of the immobilized Fc-CD22 with G5/44 were compared. Biomolecular interaction analysis was performed using a BIACORE™ 2000. Antibodies were passed over a blank control surface (flowcell 1, serves as a control, no protein was coupled) and the test surface of Fc-CD22 (flowcell 2) immobilized on a CM5 sensor chip via amine coupling chemistry to a level of 9,042 RU. The resultant sensorgram was the response (RU) on flowcell 2 minus the response (RU) on flowcell 1. A second sensorgram was obtained by first saturating the flowcells with G5/44 (100 μg/ml) before the introduction of murine mAbs against CD22 that had been previously characterized for their binding. Immediately upon measuring the G5/44 response, murine anti-CD22 mAbs were individually perfused without removing G544. The second combined response generated due to the binding of murine anti-CD22 mAb to G5/44-coated CD22 was also recorded. If the murine antibody bound to CD22 at sites unrelated to those occupied by G5/44, then the combined responses would be additive. […]

[12] = Table 8, conjugates 160 μg/kg, rituximab 20 mg/kg ip Q4Dx3 from day 9
[13] = Table 9, high dose: CMC-544 160 μg/kg, rituximab 20 mg/kg, alone or combined
[14] = Table 10, high dose: CMC-544 160 μg/kg, rituximab 20 mg/kg, alone or combined
[15] = Table 10, low dose: CMC-544 40 μg/kg, rituximab 5 mg/kg, alone or combined
[16] = Table 10, medium dose: CMC-544 80 μg/kg, rituximab 10 mg/kg, alone or combined

## CMC-544: G5/44-NAc-gamma-calicheamicin DMH AcBut conjugate; monomeric calicheamicin derivative/humanized anti-CD22 antibody (G5/44)
[1]; CMC-544 40 μg/kg
  mice still surviving at 125 days: 90%
[1]; [12]
  Average Survival Time: 83.5 days
  Median Survival Time: 76.5 days
  Minimum Survival Time: 34.0 days
[1]; [13]
  Maximum Survival Time: >100.0 days
  Median Survival Time: 34.5 days
  Minimum Survival Time: 27.0 days
[1]; Table 9 initial combination study, high dose: CMC-544 160 μg/kg, rituximab 20 mg/kg, alone or combined
  Average Survival Time: 58.5 days
[1]; [14]
  Average Survival Time: 85 days and 85.22 days
  Maximum Survival Time: 125.00 days
  Median Survival Time: 82.00 days
  Minimum Survival Time: 35.00 days
[1]; [15]
  Average Survival Time: 118.90 days
  Maximum Survival Time: 125.00 days
  Median Survival Time: 125.00 days
  Minimum Survival Time: 64.00 days
[1]; [16]
  Average Survival Time: 118.22 days
  Maximum Survival Time: 125.00 days
  Median Survival Time: 125.00 days
  Minimum Survival Time: 71.00 days
[2]; 60-320 μg/kg
  tumor regression at higher doses: almost complete regression of RL lymphoma
[2]; based on calicheamicin content, from statistical analyses of three studies
  minimally effective dose in the RL lymphoma model: 0.02 mg/kg
[2]; calicheamicin dose 20 μg/kg
  % T/C: 43%
  MEAN RELATIVE TUMOR GROWTH: 2.87
[2]; calicheamicin dose 40 μg/kg
  % T/C: 20%
  MEAN RELATIVE TUMOR GROWTH: 1.34
[2]; calicheamicin dose 60 μg/kg
  % T/C: 9%
  MEAN RELATIVE TUMOR GROWTH: 0.58
[2]; calicheamicin dose 80 μg/kg
  % T/C: 8%
  MEAN RELATIVE TUMOR GROWTH: 0.54
[2]; calicheamicin dose 160 μg/kg
  % T/C: 3%
  MEAN RELATIVE TUMOR GROWTH: 0.21
[2]; calicheamicin dose 320 μg/kg
  % T/C: 1%
  MEAN RELATIVE TUMOR GROWTH: 0.10
[2]; three independent experiments, 20-320 μg/kg
  deaths: no deaths
[3]
  binding to HL-60 leukemia cells: neither CMC-544 nor G5/44 demonstrated any binding
[4]
  recognition of CD22 on B cells of different species: specifically recognizes CD22 on human B cells, but not on murine, rat, canine, porcine or primate (cynomolgus and rhesus) B cells
[5]
  antitumor effect: complete and lasted throughout the experimental period
[6]
  inhibition of growth of RAMOS B-cell lymphoma: efficacious in inhibiting, in a dose-dependent manner, the growth of RAMOS B-cell lymphoma
[7]
  median inhibitory concentration (IC50): 0.029 ng/mL
[8]
  Average Survival Time: 41 days and 41.0 days
  Maximum Survival Time: 60.0 days
  Median Survival Time: 38.0 days
  Minimum Survival Time: 32.0 days
[9]; 160 μg/kg ip
  mice with re-growth of the tumors by day 45: 2
[9]; 160 μg/kg ip, within 30 days
  regression of the pre-existing mass of RL lymphoma: > 90%
[9]; studies not shown
  response of re-grown RL tumors to a second course: still responsive to the second course of the treatment with CMC-544 and regressed again
[10]; 160 μg/kg conjugated calicheamicin ip, tumors staged to 1.5 or 2 g
  tumor-free mice by day 20: 3 out of 4
[10]; 160 μg/kg ip
  re-growth of regressed lymphoma up to day 50: did not indicate any re-growth

## 5/44: murine anti-CD22 monoclonal antibody, the murine parent of G5/44
[11]
  Response 1 with G544: 725.1 RU
